The numbers were not newly measured in US20110144044A1, “Composition and method for increasing post workout recovery” (priority 2009, published 2011), which cites them from elsewhere.

Each structure is given as a SMILES string.

One data set relates to rats. Conditions: CNS administration.
Setting [1] is: after caffeine ingestion 6 mg/kg, intense exercise.

`Cn1c(=O)c2c(ncn2C)n(C)c1=O` [caffeine]: in the data set with subjects (setting [1]), the muscle lactate concentration entry was “increased”, the net muscle glycogenolysis result is on record as “unaffected” and the plasma epinephrine concentration entry is recorded as “increased”. In addition, the endurance entry in the data set on subjects (caffeine 6 mg/kg ingested vs placebo, cycling to voluntary exhaustion) is reported as “significant increase in endurance”. Moreover, the “increase in treadmill run time to fatigue” value in the data set with rats is on record as “approximately 60%”.

For the molecule `CCNC(=O)[C@H]1O[C@@H](n2cnc3c(N)ncnc32)[C@H](O)[C@@H]1O` [NECA, 5′-N-ethylcarboxamidoadenosine], the “run time to fatigue” value with rats is listed as “significantly reduced run time to fatigue”.
